Measurements as given in US6316623A, “Ethylenediamine compound libraries” (priority 1998, dated 2001).

System: E. coli imp-
Test: microbe, parasite or virus in culture
Assay type: cell-based
Conditions: Escherichia coli, 24 h, read-out: % inhibition of bacterial growth in culture
Protocol: In this assay, the strain E. coli imp-obtained from Spenser Bensen (Sampson, B. A., Misra, R. & Benson, S. A. (1989), Genetics, 122, 491-501, Identification and characterization of a new gene of Escherichia coli K-12 involved in outer membrane permeability) is used. To initiate the exponential phase of bacterial growth prior to the assay, a sample of bacteria was grown overnight at 37° C. in Luria broth and then used to reinoculate sample wells of 96-well microtiter plates. The assays were carried out in the 96-well microtiter plates in 150 μL volume with approximately 1×10^6 cells per well.
Bacteria in Luria broth (75 μL) was added to the compound mixtures in solution in 75 μL water in the individual well of the microtiter plate. Final concentrations of the compound mixtures were 25 μM, 10 μM and 1 μM. Each concentration of the compound mixtures were assayed in triplicate. The plates were incubated at 37° C. and growth monitored over a 24 hour period by measuring the optical density at 595 nm using a BioRad model 3550 UV microplate reader. The percentage of growth relative to a well containing no compound was determined. Ampicillin and tetracycline antibiotic positive controls were concurrently tested in each screening assay.

| Compound | inhibition at 500 µM |
| --- | --- |
| CC(C)(C)c1ccc(C(=O)N(CCNC(=O)c2cnccn2)CC2CCCN(C(=O)Cc3ccccc3)C2)cc1 (racemic) [compound 17957] | 95.7% |
| CC(C)(C)c1ccc(C(=O)N(CCNC(N)=O)CC2CCCN(C(=O)CO)C2)cc1 (racemic) [compound 17959] | 39.5% |
| Cc1ccc(NC(=O)NCCN(C(=O)C2CC2)C2CCN(C(=O)Cc3ccccc3)C2)cc1 (racemic) [compound 17986] | 35.2% |
| CC(C)(C)c1ccc(C(=O)N(CCNC(=O)c2cnccn2)C2CCN(C(=O)Cc3ccccc3)C2)cc1 (racemic) [compound 17989] | 38.5% |
| O=C(NCCN(C(=O)CO)C1CCN(C(=O)Cc2ccccc2)C1)c1cnccn1 (racemic) [compound 18005] | 61.1% |
| CC(C)(C)c1ccc(C(=O)N(CCNC(=O)c2cnccn2)CC2CCN(C(=O)Cc3ccccc3)CC2)cc1 [compound 17925] | 93.9% |
| CC(C)(C)c1ccc(C(=O)N(CCNC(N)=O)CC2CCN(C(=O)CO)CC2)cc1 [compound 17927] | 96.3% |
| Cc1ccc(NC(=O)NCCN(CC2CCN(C(=O)CO)CC2)C(=O)c2ccc(N)cc2)cc1 [compound 17946] | 98.7% |
